Measurements published in patent publication US10344052B2, “Targeting peptides and uses thereof” (Health Research, Inc., priority 2013, dated 2019).

What follows are sequences tested on ADT-perturbed human prostate cancer vasculature (assay: In vivo selection of Ph.D.-12 phage display library against ADT-perturbed human prostate cancer xenografts, NextGen sequencing of recovered phage). Conditions: CaP Tissue Specimen 1; xenograft in SCID mouse, 72 h after ADT.
Procedure: Male SCID mice were castrated and pre-implanted with silastic tubing to provide sustained-release of testosterone to maintain human serum levels testosterone in the host mouse and to facilitate castration/androgen deprivation (ADT). Human prostate tumor tissue was prepared for transplantation by cutting the radical prostatectomy surgical remnant in ViaSpan into approximately 1.0 mm^3 to 2.0 mm^3 wedges. Tissue was transplanted, into individual incisions in the skin; four pieces of tissue were transplanted on each flank of mice anesthetized with isoflurane. Each piece of tumor tissue was dipped into Matrigel, inserted into an incision, and the incisions closed with tissue glue.
Anastamosis of the human vasculature of the prostate cancer xenografts to the host mouse vascular system occurred between Days 5 and 6 after tissue transplantation, and the vasculature had stabilized by Day 21 after transplantation.
Seventy-two hours after initiation of ADT, the host mouse was anesthetized with acepromazine/ketamine/xylazine and the peptide-phage display library introduced systemically by intra-cardiac injection into the right ventricle. The Ph.D.-12 phage library (NEB, Ipswich, Mass.) was injected at a concentration of 1.2×10^11 pfu in 100 μL. The phage library was allowed to circulate through the mouse host for 15 minutes. At the conclusion of the incubation the vascular volume was replaced by perfusion (40 ml) with PBS to remove unbound phage. […] The xenografts were excised and placed into an eppendorf tube containing 0.5 mL phage elution buffer (0.2 M Glycine-HCl pH 2.2, 0.5% BSA) and the xenografts homogenized with a rotor/stator homogenizer on ice. The phage containing homogenate was cleared by centrifugation at 20,800×G for 5 minutes, and neutralization buffer (Tris-HCl pH 9.1) added to the supernatant. The concentration of phage in the eluate was established by titration: serial 10-fold dilutions of the neutralized phage eluate (10 μl) were added to 200 μL of a mid-log culture of host bacteria (ER2738), the cells/phage mixed with 3.5 mL of molten top agar (48° C.), and plated onto LB. Plates were incubated at 37° C. overnight and blue plaques were counted for determination of pfu. Based on the pfu, an aliquot of the neutralized phage eluate that contained a standardized number of phage was amplified by addition to a 20 mL flask of LB/Tet inoculated with 200 μL of an overnight culture of ER2738, and the culture incubated for 4 hours. The culture was cleared of bacteria by centrifugation, the supernatant treated with ⅙ volume of PEG/NaCl (20% (w/v) PEG-8000, 2.5M NaCl), refrigerated overnight for phage precipitation, and phage recovered by centrifugation. The final phage pellet was resuspended in […] of TBS and titered (as described above). For all in vivo selections the input phage held constant at 1.2×10^11 phage per mouse.
Following the third sequential round of in vivo selection against tissue from a single patient, the recovered phage population was titered, diluted and plated at a concentration to yield approximately 100 plaques per plate. Individual plaques were picked and amplified for conventional DNA sequencing to verify that a diversity of peptides was selected. Subsequently, the region of the phage genome that contained the random peptides embedded in the pIII protein were amplified by PCR from all selected phage libraries in preparation for Next Gen Sequencing. PCR primers were designed that flanked the hyper-variable region of the phage genome, the region containing the peptide inserted into the pIII protein: (FWD:—3gIII: 5′-CCTTTCTATTCTCACTCTGCT-3′ (SEQ ID NO:98); REV:—155gIII: 5′-CCGTAACACTGAGTTTCGTCA-3′ (SEQ ID NO:99)). The amplified segments were the templates for the NextGen DNA sequencing process. Templates were quantified and concentrations normalized and underwent 454 Next Gen sequencing using 500 ng of amplified template DNA at a concentration of […]. […]
For AETVESCLAKSH, the “Recovery of Candidate Peptides Percent of Total Phage After 3 Cycles of Selection” value was 0.99%. DPKFPQNSHLIT was tested, and the “Recovery of Candidate Peptides Percent of Total Phage After 3 Cycles of Selection” value was 0.63%. For DQHGFMHIFDL, the “Recovery of Candidate Peptides Percent of Total Phage After 3 Cycles of Selection” value was 0.4%. With GAMHLPWHMGT the “Recovery of Candidate Peptides Percent of Total Phage After 3 Cycles of Selection” value was 0.21%. HSAQPVKSKAWL was tested, and the “Recovery of Candidate Peptides Percent of Total Phage After 3 Cycles of Selection” value was 0.3%. With KPPQTNTSAPYLP the “Recovery of Candidate Peptides Percent of Total Phage After 3 Cycles of Selection” value was 27.3%. In the case of LLADTTHHRWT, the “Recovery of Candidate Peptides Percent of Total Phage After 3 Cycles of Selection” value is reported as 0.1%. SPHWQPNAI was tested, and the “Recovery of Candidate Peptides Percent of Total Phage After 3 Cycles of Selection” value was 3.29%. With TLQRTHFPPAFS the “Recovery of Candidate Peptides Percent of Total Phage After 3 Cycles of Selection” value was 9.58%. With TMGFTAPRFPHY the “Recovery of Candidate Peptides Percent of Total Phage After 3 Cycles of Selection” value was 26.5%.

Same assay, conditions: CaP Tissue Specimen 2; xenograft in SCID mouse, 72 h after ADT
AETVESCLAKSH was tested, and the “Recovery of Candidate Peptides Percent of Total Phage After 3 Cycles of Selection” value was 0.5%. For DPKFPQNSHLIT, the “Recovery of Candidate Peptides Percent of Total Phage After 3 Cycles of Selection” value was 0.35%. With DQHGFMHIFDL the “Recovery of Candidate Peptides Percent of Total Phage After 3 Cycles of Selection” value was 0.1%. GAMHLPWHMGT was tested, and the “Recovery of Candidate Peptides Percent of Total Phage After 3 Cycles of Selection” value was 46.3%. In the case of HSAQPVKSKAWL, the “Recovery of Candidate Peptides Percent of Total Phage After 3 Cycles of Selection” value is reported as 0.2%. With KPPQTNTSAPYLP the “Recovery of Candidate Peptides Percent of Total Phage After 3 Cycles of Selection” value was 5.48%. LLADTTHHRWT was tested, and the “Recovery of Candidate Peptides Percent of Total Phage After 3 Cycles of Selection” value was 0.1%. For SPHWQPNAI, the “Recovery of Candidate Peptides Percent of Total Phage After 3 Cycles of Selection” value was 1.53%. For TLQRTHFPPAFS, the “Recovery of Candidate Peptides Percent of Total Phage After 3 Cycles of Selection” value was 7.57%. With TMGFTAPRFPHY the “Recovery of Candidate Peptides Percent of Total Phage After 3 Cycles of Selection” value was 4.78%.

Same assay, conditions: in words
With GAMHLPWHMGTL the recovery was “high recovery”.

Same assay, conditions: third round of in vivo selection, data of the two tumor specimens combined
With KPPQNTSAPLSS the “# clones recovered” value was 3. With KPPQNTSAPY the “# clones recovered” value was 2. For KPPQNTSAPYLP, the “# clones recovered” value was 659. In the case of KPPQNTSAPYLR, the “# clones recovered” value is reported as 2. KPPQNTSCAFIF was tested, and the “# clones recovered” value was 2. With SPHWQPNAIFVN the “# clones recovered” value was 36. With SPHWQPNAIL the “# clones recovered” value was 2. SPHWQPNAILL was tested, and the “# clones recovered” value was 2. With SPHWQPNAILLM the “# clones recovered” value was 17. In the case of TLQRIHFPPAFS, the “# clones recovered” value is reported as 5. With TLQRTHFPLAFS the “# clones recovered” value was 3. TLQRTHFPPA was tested, and the “# clones recovered” value was 30. For TLQRTHFPPAAG, the “# clones recovered” value was 3. In the case of TLQRTHFPPAFF, the “# clones recovered” value is reported as 22. TLQRTHFPPAFP was tested, and the “# clones recovered” value was 3. In the case of TLQRTHFPPAFR, the “# clones recovered” value is reported as 126. With TLQRTHFPPAFS the “# clones recovered” value was 7988. In the case of TLQRTHFPPAFW, the “# clones recovered” value is reported as 3. In the case of TLQRTHFPPARR, the “# clones recovered” value is reported as 3. For TLQRTHFPPGVF, the “# clones recovered” value was 5. With TLQRTHFPPVVF the “# clones recovered” value was 19. With TLQRTHFPPVVS the “# clones recovered” value was 8. In the case of TLQRTHFPRLFG, the “# clones recovered” value is reported as 3. TLQRTHFPRRFG was tested, and the “# clones recovered” value was 3. For TLQRTHFPRRFR, the “# clones recovered” value was 6. In the case of TLQRTHFPSA, the “# clones recovered” value is reported as 6. For TLQRTHFPSG, the “# clones recovered” value was 47. TLQRTHFPSGV was tested, and the “# clones recovered” value was 19. TLQRTHFPSGVF was tested, and the “# clones recovered” value was 32. In the case of TLQRTHFPSGVS, the “# clones recovered” value is reported as 14. For TLQRTHFRPAF, the “# clones recovered” value was 6. For TLQRTHFRPAFR, the “# clones recovered” value was 21. With TLQRTHFRRRF the “# clones recovered” value was 5. For TLQRTHFRRRFG, the “# clones recovered” value was 95. For TLQRTHFSAGVF, the “# clones recovered” value was 116. For TLQRTHFSPAFS, the “# clones recovered” value was 4. TLQRTHFSVR was tested, and the “# clones recovered” value was 4. With TLQRTLFPPVVS the “# clones recovered” value was 14. TLQRTLFSAGRF was tested, and the “# clones recovered” value was 32. TLQRTLFSAGVF was tested, and the “# clones recovered” value was 9. In the case of TMGFTAPRFP, the “# clones recovered” value is reported as 9. With TMGFTAPRFPAL the “# clones recovered” value was 2. In the case of TMGFTAPRFPHC, the “# clones recovered” value is reported as 2. TMGFTAPRFPHH was tested, and the “# clones recovered” value was 3. In the case of TMGFTAPRFPHL, the “# clones recovered” value is reported as 4. With TMGFTAPRFPHM the “# clones recovered” value was 2. TMGFTAPRFPHQ was tested, and the “# clones recovered” value was 8. For TMGFTAPRFPHR, the “# clones recovered” value was 4. TMGFTAPRFPLL was tested, and the “# clones recovered” value was 6. TMGFTAPRFPSV was tested, and the “# clones recovered” value was 2. With TMGFTAPRFQHY the “# clones recovered” value was 2. For TMGFTAPRFRIM, the “# clones recovered” value was 5. For TMGFTAPRRGAV, the “# clones recovered” value was 2. In the case of TMGFTAPWFPHY, the “# clones recovered” value is reported as 2. With TMGLTHSRVRIE the “# clones recovered” value was 2. With TXGFTAPRFPHY the “# clones recovered” value was 47.
